# Where a SMILES comes first, the peptide text is derived from it.
# Target: HLA A*3001 (Homo sapiens, UniProt P04439, D140H/D185E/E176W/F33S/G80R/H175R/K168Q/R138E/R41S)
# Assay: biochemical
# Assay type: binding
# Chain of HLA A*3001 (P04439 25-365 limits assumed, stated change not applied): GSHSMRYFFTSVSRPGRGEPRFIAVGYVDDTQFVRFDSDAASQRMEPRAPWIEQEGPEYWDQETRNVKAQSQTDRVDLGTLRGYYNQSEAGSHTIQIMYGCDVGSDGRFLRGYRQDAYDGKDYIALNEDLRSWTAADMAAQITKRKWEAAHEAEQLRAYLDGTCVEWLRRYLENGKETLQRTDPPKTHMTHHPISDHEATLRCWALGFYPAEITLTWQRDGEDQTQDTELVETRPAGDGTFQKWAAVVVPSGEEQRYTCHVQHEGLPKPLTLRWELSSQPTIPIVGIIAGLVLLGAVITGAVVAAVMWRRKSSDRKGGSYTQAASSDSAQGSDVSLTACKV
row,SMILES,IC50 [nM]
1,CC[C@H](C)[C@H](N)C(=O)N[C@H](C(=O)N[C@@H](CCCCN)C(=O)N[C@H](C(=O)N[C@@H](CC(N)=O)C(=O)N[C@H](C(=O)N[C@@H](Cc1c[nH]cn1)C(=O)N[C@@H](CC(C)C)C(=O)N[C@@H](C)C(=O)O)[C@@H](C)O)[C@@H](C)CC)[C@@H](C)O [3102.0001] (H-ITKINTHLA-OH),15
2,CC[C@H](C)[C@H](N)C(=O)N[C@H](C(=O)N[C@@H](CCCCN)C(=O)N[C@@H](CO)C(=O)N1CCC[C@H]1C(=O)N[C@@H](Cc1ccc(O)cc1)C(=O)N[C@@H](CCSC)C(=O)N[C@@H](Cc1ccccc1)C(=O)N[C@@H](C)C(=O)O)[C@@H](C)CC [3102.0003] (H-IIKSPYMFA-OH),6.4
3,CC[C@H](C)[C@H](NC(=O)[C@H](CC(C)C)NC(=O)[C@@H](NC(=O)[C@@H](NC(=O)[C@H](CCCNC(=N)N)NC(=O)[C@H](Cc1ccccc1)NC(=O)[C@@H](N)CCCNC(=N)N)[C@@H](C)O)C(C)C)C(=O)N[C@@H](CO)C(=O)N[C@@H](CCCCN)C(=O)O [3102.0004] (H-RFRTVLISK-OH),4.6
4,CC(C)C[C@H](NC(=O)[C@H](CC(N)=O)NC(=O)[C@H](CC(C)C)NC(=O)[C@H](CCCNC(=N)N)NC(=O)[C@H](CCCNC(=N)N)NC(=O)[C@H](CO)NC(=O)[C@H](CCCCN)NC(=O)[C@H](CO)NC(=O)[C@@H](N)CCCCN)C(=O)O [3102.0008] (H-KSKSRRLNL-OH),13
5,CC(C)C[C@H](NC(=O)[C@H](CC(N)=O)NC(=O)[C@H](CC(C)C)NC(=O)[C@H](CCCNC(=N)N)NC(=O)[C@H](CCCNC(=N)N)NC(=O)[C@H](CO)NC(=O)[C@@H](N)CCCCN)C(=O)N[C@@H](Cc1ccccc1)C(=O)N[C@@H](CO)C(=O)O [3102.0009] (H-KSRRLNLFS-OH),3.3
6,CC[C@H](C)[C@H](NC(=O)[C@H](CCSC)NC(=O)[C@H](CCCCN)NC(=O)[C@@H](NC(=O)[C@@H](N)CC(C)C)C(C)C)C(=O)N[C@@H](CC(N)=O)C(=O)N[C@@H](Cc1c[nH]cn1)C(=O)N[C@@H](CC(C)C)C(=O)N[C@@H](CCCCN)C(=O)O [3102.0010] (H-LVKMINHLK-OH),42
7,CSCC[C@H](N)C(=O)N[C@H](C(=O)N[C@@H](CCCNC(=N)N)C(=O)N[C@@H](CC(C)C)C(=O)N[C@H](C(=O)N[C@H](C(=O)N[C@@H](CCC(N)=O)C(=O)NCC(=O)N[C@@H](CC(C)C)C(=O)O)[C@@H](C)O)[C@@H](C)O)C(C)C [3102.0012] (H-MVRLTTQGL-OH),8.3
8,CC[C@H](C)[C@H](NC(=O)[C@@H](N)CCCCN)C(=O)N[C@@H](CCCCN)C(=O)N[C@@H](CO)C(=O)N1CCC[C@H]1C(=O)N[C@H](C(=O)N[C@@H](Cc1ccc(O)cc1)C(=O)N[C@@H](Cc1ccc(O)cc1)C(=O)N[C@@H](CCCCN)C(=O)O)[C@@H](C)CC [3102.0014] (H-KIKSPIYYK-OH),0.93
9,CC(C)[C@H](NC(=O)[C@@H](N)CCCCN)C(=O)N[C@@H](Cc1ccccc1)C(=O)N[C@H](C(=O)N1CCC[C@H]1C(=O)N[C@@H](C)C(=O)N1CCC[C@H]1C(=O)N[C@@H](Cc1ccccc1)C(=O)NCC(=O)O)C(C)C [3102.0015] (H-KVFVPAPFG-OH),6.6
10,CC[C@H](C)[C@H](NC(=O)[C@H](CCCCN)NC(=O)[C@@H](NC(=O)[C@@H](N)Cc1c[nH]cn1)[C@@H](C)O)C(=O)N[C@@H](CC(=O)O)C(=O)N[C@@H](CO)C(=O)N[C@@H](CCSC)C(=O)N[C@@H](Cc1ccccc1)C(=O)N[C@@H](CC(C)C)C(=O)O [3102.0016] (H-HTKIDSMFL-OH),1.5
11,CC(C)C[C@H](NC(=O)[C@H](CO)NC(=O)[C@@H]1CCCN1C(=O)[C@@H]1CCCN1C(=O)[C@H](CO)NC(=O)[C@@H](NC(=O)[C@@H](N)CCCCN)C(C)C)C(=O)NCC(=O)N[C@@H](CCCCN)C(=O)O [3102.0017] (H-KVSPPSLGK-OH),1.1
12,CC[C@H](C)[C@H](NC(=O)[C@H](C)NC(=O)[C@H](CC(C)C)NC(=O)[C@H](Cc1c[nH]cn1)NC(=O)[C@H](CCC(N)=O)NC(=O)[C@@H](N)Cc1c[nH]cn1)C(=O)N[C@@H](CCSC)C(=O)N[C@@H](Cc1ccccc1)C(=O)N[C@@H](CCCCN)C(=O)O [3102.0020] (H-HQHLAIMFK-OH),5
13,CSCC[C@H](NC(=O)[C@H](CO)NC(=O)[C@H](CCCNC(=N)N)NC(=O)[C@@H]1CCCN1C(=O)[C@H](Cc1ccccc1)NC(=O)[C@H](CCCCN)NC(=O)[C@H](CO)NC(=O)[C@@H](N)CCCCN)C(=O)N[C@@H](CC(C)C)C(=O)O [3102.0022] (H-KSKFPRSML-OH),31
14,CC(C)C[C@H](NC(=O)[C@H](CO)NC(=O)[C@H](CO)NC(=O)[C@H](CCC(=O)O)NC(=O)[C@H](CCCCN)NC(=O)[C@H](CCCCN)NC(=O)[C@H](Cc1ccccc1)NC(=O)[C@@H](N)CCCNC(=N)N)C(=O)N[C@@H](C)C(=O)O [3102.0023] (H-RFKKESSLA-OH),0.31
15,CSCC[C@H](N)C(=O)N[C@@H](CC(C)C)C(=O)N[C@@H](CCCNC(=N)N)C(=O)N[C@H](C(=O)N[C@H](C(=O)N[C@@H](Cc1ccc(O)cc1)C(=O)N[C@@H](CS)C(=O)N[C@@H](CC(N)=O)C(=O)N[C@@H](CCCCN)C(=O)O)C(C)C)[C@@H](C)O [3102.0024] (H-MLRTVYCNK-OH),0.26
16,CC(C)[C@H](NC(=O)[C@H](CO)NC(=O)[C@H](CCCNC(=N)N)NC(=O)[C@H](CCCCN)NC(=O)[C@H](CO)NC(=O)[C@H](CC(N)=O)NC(=O)[C@H](CCCNC(=N)N)NC(=O)[C@H](CC(N)=O)NC(=O)[C@@H](N)CCCCN)C(=O)O [3102.0025] (H-KNRNSKRSV-OH),33
17,CC[C@H](C)[C@H](NC(=O)[C@H](CC(N)=O)NC(=O)[C@@H]1CCCN1C(=O)[C@H](CCCNC(=N)N)NC(=O)[C@H](Cc1ccc(O)cc1)NC(=O)[C@@H](N)CC(C)C)C(=O)N1CCC[C@H]1C(=O)N[C@@H](CC(C)C)C(=O)N[C@@H](CCCCN)C(=O)O [3102.0026] (H-LYRPNIPLK-OH),3.5
18,CC[C@H](C)[C@H](NC(=O)[C@H](Cc1ccccc1)NC(=O)[C@H](CCCCN)NC(=O)CNC(=O)[C@H](CCC(N)=O)NC(=O)[C@H](CCCNC(=N)N)NC(=O)[C@@H](NC(=O)[C@@H](N)CCCNC(=N)N)[C@@H](C)CC)C(=O)N[C@@H](CCCCN)C(=O)O [3102.0028] (H-RIRQGKFIK-OH),4.8
19,CC[C@H](C)[C@H](N)C(=O)N[C@H](C(=O)N[C@@H](CCCCN)C(=O)N[C@@H](CO)C(=O)N[C@@H](CO)C(=O)N[C@@H](Cc1ccc(O)cc1)C(=O)N[C@H](C(=O)N[C@@H](Cc1ccccc1)C(=O)N[C@@H](CCCCN)C(=O)O)C(C)C)[C@@H](C)CC [3102.0029] (H-IIKSSYVFK-OH),11
20,CC(C)C[C@H](NC(=O)[C@H](Cc1ccccc1)NC(=O)[C@H](CC(N)=O)NC(=O)[C@H](Cc1ccccc1)NC(=O)[C@@H]1CCCN1C(=O)[C@H](C)NC(=O)[C@H](CC(C)C)NC(=O)[C@@H](NC(=O)[C@@H](N)CCCCN)[C@@H](C)O)C(=O)O [3102.0030] (H-KTLAPFNFL-OH),15
21,N=C(N)NCCC[C@H](NC(=O)CNC(=O)[C@@H](N)CCCCN)C(=O)N[C@@H](CCCNC(=N)N)C(=O)N[C@@H](CCC(N)=O)C(=O)N[C@@H](Cc1ccc(O)cc1)C(=O)N[C@@H](Cc1ccccc1)C(=O)N[C@@H](Cc1ccc(O)cc1)C(=O)NCC(=O)O [3102.0035] (H-KGRRQYFYG-OH),2.9
22,CC[C@H](C)[C@H](NC(=O)[C@H](CCCCN)NC(=O)[C@@H](NC(=O)[C@@H](N)CCCNC(=N)N)[C@@H](C)O)C(=O)N1CCC[C@H]1C(=O)N[C@@H](CC(C)C)C(=O)N[C@@H](CO)C(=O)N[C@@H](CCCCN)C(=O)N[C@H](C(=O)O)C(C)C [3102.0039] (H-RTKIPLSKV-OH),4.1
23,CC[C@H](C)[C@H](NC(=O)CNC(=O)[C@H](CC(C)C)NC(=O)[C@@H]1CCCN1C(=O)CNC(=O)[C@H](CCCNC(=N)N)NC(=O)[C@@H](NC(=O)[C@@H](N)CCCNC(=N)N)[C@@H](C)O)C(=O)N[C@@H](CC(C)C)C(=O)O [3102.0040] (H-RTRGPLGIL-OH),0.086
24,CC[C@H](C)[C@H](NC(=O)[C@H](CCCCN)NC(=O)[C@@H](NC(=O)[C@H](CO)NC(=O)[C@H](CCC(N)=O)NC(=O)[C@H](CC(=O)O)NC(=O)[C@H](CCCNC(=N)N)NC(=O)[C@H](CC(C)C)NC(=O)[C@@H](N)Cc1c[nH]cn1)[C@@H](C)CC)C(=O)O [3102.0041] (H-HLRDQSIKI-OH),15
25,C[C@@H](O)[C@H](NC(=O)[C@H](CO)NC(=O)CNC(=O)[C@H](CCCNC(=N)N)NC(=O)[C@H](CC(N)=O)NC(=O)CN)C(=O)N[C@@H](CO)C(=O)N[C@@H](Cc1ccccc1)C(=O)N[C@@H](CCCCN)C(=O)O [3102.0043] (H-GNRGSTSFK-OH),2
26,CC[C@H](C)[C@H](NC(=O)[C@H](C)NC(=O)[C@H](Cc1c[nH]cn1)NC(=O)[C@H](CO)NC(=O)[C@@H](N)CCCCN)C(=O)N[C@@H](Cc1ccc(O)cc1)C(=O)N[C@@H](Cc1c[nH]c2ccccc12)C(=O)N[C@@H](CC(=O)O)C(=O)N[C@@H](CCCCN)C(=O)O [3102.0046] (H-KSHAIYWDK-OH),11

# Target: HLA B*1503 (Homo sapiens, UniProt P01889, A329T/A93T/A95T/C349S/D201E/D98Y/E187L/E204Q/K202T/N87E/Q94N/R155S/R180L/S121R/S35A/V306I/V36M/Y140S/Y91S)
# Assay: biochemical
# Assay type: binding
row,SMILES,IC50 [nM]
1,CC[C@H](C)[C@H](NC(=O)[C@H](CC(N)=O)NC(=O)[C@@H](NC(=O)[C@H](Cc1ccccc1)NC(=O)[C@H](CO)NC(=O)[C@@H](NC(=O)[C@H](CO)NC(=O)[C@@H](N)Cc1c[nH]c2ccccc12)[C@@H](C)O)[C@@H](C)O)C(=O)N[C@@H](Cc1ccccc1)C(=O)O [3102.1342] (H-WSTSFTNIF-OH),5.9
2,CC[C@H](C)[C@H](NC(=O)[C@H](CC(C)C)NC(=O)[C@H](CCC(=O)O)NC(=O)[C@@H](NC(=O)[C@@H](NC(=O)[C@H](CCC(N)=O)NC(=O)[C@@H](N)CO)[C@@H](C)O)[C@@H](C)CC)C(=O)N[C@@H](C)C(=O)N[C@@H](Cc1ccccc1)C(=O)O [3102.1343] (H-SQTIELIAF-OH),0.21
3,CC[C@H](C)[C@H](NC(=O)[C@H](CC(N)=O)NC(=O)[C@H](CCSC)NC(=O)[C@@H](NC(=O)[C@H](CCSC)NC(=O)[C@@H](N)CC(C)C)[C@@H](C)O)C(=O)N[C@H](C(=O)N[C@@H](CC(N)=O)C(=O)N[C@@H](Cc1ccccc1)C(=O)O)C(C)C [3102.1344] (H-LMTMNIVNF-OH),17
